Laboratory results as given in patent publication US20260337212A1, “IP4-4,6 SUBSTITUTED DERIVATIVE COMPOUNDS FOR USE IN THE TREATMENT, INHIBITION OF PROGRESSION, AND PREVENTION OF ECTOPIC CALCIFICATION” (SANIFIT THERAPEUTICS, S.A., priority 2022, published 2026).

Experiments:
[1] = In vitro inhibition of calcium phosphate crystallization in human plasma (spectrophotometric); assay type: biochemical; conditions: 0-100 μM, 1.5 mM phosphate, 12.5 mM calcium, pH 7.4, 30 min, rt, read-out: Relative Potency (EC50, inhibition of calcium phosphate crystallization)
Method: The in vitro efficacy of the IP4-4,6 substituted derivatives (e.g., Compounds 1 to 53) of the invention on the inhibition of calcium phosphate crystallization in human plasma samples was evaluated according to a spectrophotometric assay previously described in the art (Ferrer M, et al., Sci Rep 2017; 7:6858, doi:10.1038/s41598-017-07203-x).
A 96-well plate was employed. Plasma was spiked (1 volume of the IP4-4,6 substituted derivatives of the invention per 19 volumes of plasma) with increasing concentrations of the derivatives in the range of 0-100 μM. Plasma was then centrifuged at 10,000 g at rt and subsequently mixed with a mixture of 5 mM hydrogen phosphate and 41.67 mM calcium to attain final concentrations of 1.5 mM phosphate and 12.5 mM calcium, respectively. All reagent solutions were filtered, and pH adjusted to 7.4.
Crystallization of calcium phosphate was monitored spectrophotometrically for 30 min at rt by measuring the increments in absorbance at 550 nm using the Biotek Powerwave XS Microplate spectrophotometer (BioTek Instruments, Inc., Winooski, VT, US). The plate was incubated at rt in an orbital shaker and absorbance measured every 3 min.
Plasma crystallization was assessed based on slope measurement in the linear range between 6 and 24 min from plots of increase in absorbance versus logarithm of time. The efficacy of different myo-inositol phosphates derivatives in preventing in vitro formation of calcium phosphate crystals was assessed in human plasma samples using the slopes obtained between 6- and 24-min. Inhibition of crystallization was measured by comparing the slopes of the control sample (blank plasma) with those of samples containing the inhibitor as shown below: […]

[2] = system: interstitial cells from aortic human valves (VIC); test: Calcification of interstitial cells from calcified human aortic valves (Alizarin Red); assay type: cell-based; conditions: 1, 3, 10, 30, 100 μM; 3 weeks osteodifferentiation media; FIG. 15
Method: Calcification was measured by Alizarin Red staining and quantified spectrophotometrically as relative calcification. Values are shown as dot plots with mean. A one-way ANOVA for parametric distributions (IP6) with DMS post-test statistical analysis was performed. For not normally distributed results (Compound 1, Compound 3, and Compound 6), a nonparametric one-way ANOVA (Kruskal-Wallis test) with Dunn's post-test was applied, p<0.05 was considered statistically significant.
The dose-response efficacy of IP4-4,6 derivatives in the treatment of calcified aortic human valves was analyzed using an in vitro model (Zabirnyk A, et al., Vasc Pharmacol 2019; 122-123, 106583, doi:10.1016/j.vph.2019.106583). The model evaluated the effects of IP6, Compound 1, Compound 3, and Compound 6 on the calcification of interstitial cells from aortic human valves (VIC).
Human calcified aortic valve leaflets were obtained during aortic valve replacement and were harvested. After the removal of the valve endothelial cells, VIC were isolated. The leaflets were placed in 30 mL of basic growth medium (DMEM), supplemented with 10% fetal bovine serum (FBS) and 50 μg/mL gentamycin with the addition of 1 mg/mL collagenase II. The cells were incubated overnight at 37° C. with 5% CO2. Next day, the digested tissue was homogenized by pipetting with a serological pipet and centrifuged at 300 g for 5 min and the supernatant carefully removed by aspiration.
The pellet was washed in 10 mL of fresh DMEM and centrifuged as described previously. The supernatant was removed by aspiration, the cell pellet was resuspended in basic growth media and seeded in […]. VIC were cultured at 37° C. and 5% CO2 with growth media changed twice a week until they reached ~90% confluency. Cells were passaged at ratio of 1:2, propagated and frozen. […]
Alizarin Red staining was performed to assess calcification. […] To quantify calcium accumulation, Alizarin Red staining was extracted and measured spectrophotometrically. […]

[3] = Rat calcinosis cutis/calciphylaxis model (vitamin D3 and FeCl3): skin plaque calcification; assay type: in vivo, Sprague Dawley rat; conditions: 60 mg/kg s.c. daily D1-D8; HC (vitamin D3 50,000 IU/kg), FeCl3 0.5 mg/kg
Method: The dose-response efficacy of IP4-4,6 derivatives in the prevention and treatment of calcinosis cutis and calciphylaxis (CUA) induced by vitamin D3 and FeCl3 in a rat model was used. The model evaluated the effects of Compound 27 and IP6 on the formation of calcified skin plaques in rats for a duration of 8 days. Animals were sensitized at low concentration (LC, 35,000 IU/kg) and high concentration (HC, 50,000 IU/kg) doses of vitamin D3. A FeCl3 solution (0.5 mg/kg) was used as challenger to induce the formation of skin plaques. All animals were weighed every day before treatment.
Eighty-six male Sprague Dawley (SD) rats (Envigo Corp., Huntingdon, GB) weighing approximately 250-300 g were used. The animals were fed with a standard LASQCdiet® Rod14-H diet (LASvendi, Soest, DE). The animals were divided in 8 groups, 6 to 12 animals per group, as follows:
The following solutions were prepared: (a) 17,500 IU/mL (LC) and 25,000 IU/mL (HC) vitamin D3 (cholecalciferol, Duphafral D3 1000; Zoetis Inc., Parsippany, NJ, US), (b) 0.3 mg/mL FeCl3 (FeCl3·6H2O, 99%, Scharlab S. L., Barcelona, E S), (c) 30 mg/mL IP6 (660 g/mol phytic acid, pH 6.5-7.7), and (d) 15, 30, and 50 mg/mL Compound 27 (754.45 g/mol free acid, pH 6.5-7.7). All solutions were prepared in a 0.9% (w/v) physiological saline NaCl medium. An application volume of 2 mL/kg was employed.
Group 1—Control (sham), 6 animals. Animals in group 1 were administered subcutaneously physiological saline (0.9% (w/v) NaCl solution daily from D1 to D3 in the interscapular space, and with one saline 0.9% injection at each of the two ventral sites in the thorax on D4. Animals in group 1 were not administered Vit D or FeCl3 solutions.
(§1) Group 2—Physiological saline solution low concentration (Vehicle LC): Vit D 35,000 IU/kg, 0.5 mg/kg FeCl3 solution, 10 animals. Vit D at dose 35,000 IU/kg was administered subcutaneously x 3 consecutive days (D1, D2, D3), and one 0.5 mg/kg FeCl3 injection at each of the two ventral sites in the thorax on D4. This group received a daily saline 0.9% s.c. treatment (D1 to D8).
(§2) Group 3—Compound 27 60 mg/kg LC: Vit D 35,000 IU/kg, 0.5 mg/kg FeCl3, 10 animals. Vit D at dose 35,000 IU/kg was administered subcutaneously x 3 consecutive days (D1, D2, D3), and one 0.5 mg/kg FeCl3 injection at each of the two ventral sites in the thorax on D4. This group received a daily Compound 27 s.c. treatment at 60 mg/kg dose (D1 to D8).
as §1, with “4—Physiological” for “2—Physiological”, “high” for “low”, “HC):” for “LC):”, “50,000” for “35,000”, “FeCl3, 12” for “FeCl3 solution, 10”
as §2, with “5—IP6” for “3—Compound 27”, “HC,” for “LC:”, “50,000” for “35,000”, “12” for “10”, “IP6” for “Compound 27”
as §2, with “6—Compound” for “3—Compound”, “30” for “60”, “HC,” for “LC:”, “50,000” for “35,000”, “12” for “10”
as §2, with “7—Compound” for “3—Compound”, “[…],” for “LC:”, “50,000” for “35,000”, “12” for “10”
Group 8—Compound 27 100 mg/kg HC, Vit D 50,000 IU/kg, 0.5 mg/kg FeCl3, 12 animals. […]

EC50 [1]	Compound	Inhibition of the calcification of VIC [2]	Skin plaque % inhibition of calcification [3]
≤ 5 µM	4,6-O-di(tetradecyl)-myo-inositol-1,2,3,5-tetrakis(phosphate) octasodium salt [Compound 3]	effective in inhibiting the calcification of VIC in vitro in a dose-response manner	
≤ 5 µM	4,6-O-dipentyl-myo-inositol-1,2,3,5-tetrakis(phosphate) octasodium salt [Compound 1]	effective in inhibiting the calcification of VIC in vitro in a dose-response manner	
≤ 5 µM	O=P([O-])([O-])O[C@@H]1[C@@H](OCCCCCO)[C@H](OP(=O)([O-])[O-])[C@H](OP(=O)([O-])[O-])[C@H](OP(=O)([O-])[O-])[C@H]1OCCCCCO.[Na+].[Na+].[Na+].[Na+].[Na+].[Na+].[Na+].[Na+] [Compound 6, 4,6-O-bis(5-hydroxypentyl)-myo-inositol-1,2,3,5-tetrakis(phosphate) octasodium salt]	effective in inhibiting the calcification of VIC in vitro in a dose-response manner	
	O=P(O)(O)O[C@H]1[C@H](OP(=O)(O)O)[C@@H](OP(=O)(O)O)[C@H](OP(=O)(O)O)[C@@H](OP(=O)(O)O)[C@H]1OP(=O)(O)O [IP6, phytic acid, reference compound]		58.8 ± 14.4 %
